Laboratory results reported in the OligoGym collection.
After the bases stand the sugars from the 5' end (letter, count) and the backbone: PS all phosphorothioate, else s phosphorothioate and o phosphodiester by linkage. Methylation of C is not given here. e = 2'-O-(2-methoxyethyl) (MOE); k = constrained ethyl (cEt); d = 2'-deoxy (DNA); m = 2'-O-methyl

Target: HSD17B13
Conditions: ASO, HepaRG

Sequence | target mRNA inhibition (1 µM) [%] | also measured
TATCAGACTTCTTACG (sugars k3 d1 m1 d8 k3, PS) | 27 | 
TTGAGTAGTGTAAGCT (sugars k3 d1 m1 d8 k3, PS) | 35 | 
GTGGTAACGGTGATCA (sugars k3 d10 k3, PS) | 49 | 
ACTAATCTCAGTACTC (sugars k3 d10 k3, PS) | 45 | 
AGCATCAAGACATTCT (sugars k3 d10 k3, PS) | 79 | target mRNA inhibition (0.02 µM): 5%; target mRNA inhibition (0.078 µM): 15%; target mRNA inhibition (0.313 µM): 62%; target mRNA inhibition (1.25 µM): 78%; target mRNA inhibition (5 µM): 86%
GTTTATCAGTAAAGTG (sugars k3 d10 k3, PS) | 64 | 
CGTATTTGAGATTCAC (sugars k3 d10 k3, PS) | 59 | 
TCGATGGAAGAAGTGC (sugars k3 d10 k3, PS) | 34 | 
AGGTAGCTTTTGTCCA (sugars k3 d10 k3, PS) | 56 | 
TAGTCTGCCTGCCTAT (sugars k3 d10 k3, PS) | 44 | 
TAGCTTTTGTCCACCT (sugars k3 d10 k3, PS) | 60 | 
TGCAATGAGATTACCC (sugars k3 d10 k3, PS) | 54 | 
GAAACCAATCCTCAGC (sugars k3 d10 k3, PS) | 3 | 
GAAGACTACATTAACA (sugars k3 d10 k3, PS) | 36 | 
GCATTAATGCCACCCT (sugars kkdddddddddkekek, PS) | 24 | 
TAAAATAGAGTCGGTC (sugars k3 d9 k3 e1, PS) | 74 | target mRNA inhibition (0.02 µM): 0%; target mRNA inhibition (0.078 µM): 12%; target mRNA inhibition (0.313 µM): 31%; target mRNA inhibition (1.25 µM): 55%; target mRNA inhibition (5 µM): 77%
GTATAGTTATCTTCTC (sugars k3 d10 k3, PS) | 59 | 
CTAATATTGAGGCACT (sugars k3 d10 k3, PS) | 51 | 
ACTGTCCCAGCATTAT (sugars k3 d10 k3, PS) | 40 | 
GCATGCGCAGTGACGC (sugars k3 d10 k3, PS) | 36 | 
TCCACACCGCGCTTAT (sugars k3 d10 k3, PS) | 32 | 
ACTTGAATTCTGTGTC (sugars k3 d10 k3, PS) | 52 | 
TTTTATTATGAGGATC (sugars k3 d10 k3, PS) | 18 | 
TCTTAGCTGTGCACTC (sugars kkdddddddddkekek, PS) | 50 | 
AGCAAGCCAACAGAGA (sugars k3 d10 k3, PS) | 40 | 
GCATTAGATGGTAAGG (sugars k3 d10 k3, PS) | 64 | 
GTATTCCATCTATCAG (sugars k3 d10 k3, PS) | 52 | 

Sequence | target mRNA inhibition (1 µM) [%] | also measured
CATATCAATGCCTTAG (sugars k3 d10 k3, PS) | 29 | 
CTCTATTGATTGGCTT (sugars k3 d10 k3, PS) | 65 | 
AAGCTTTGCAGCATTG (sugars k3 d10 k3, PS) | 59 | 
GTCTACCACATACGCA (sugars k3 d10 k3, PS) | 66 | 
GCTATAGTAATTGCTA (sugars k3 d10 k3, PS) | 33 | 
ATAGAACTAGAACTCC (sugars k3 d10 k3, PS) | 22 | 
TAAACTAAAGTACTTG (sugars k3 d10 k3, PS) | 1 | 
AACTCTAAATACCCTT (sugars k3 d10 k3, PS) | 28 | 
CTGATATGAGTAAAGA (sugars k3 d10 k3, PS) | 21 | 
CCCTAGATTCTACACT (sugars k3 d10 k3, PS) | 22 | 
CTAGGGAAATCTTTCA (sugars k3 d10 k3, PS) | 48 | 
CATAATCTTGTGCTTG (sugars k3 d10 k3, PS) | 37 | 
TTGACTGCTGCTAGTG (sugars k3 d10 k3, PS) | 30 | 
GTCTACCTCTAAGTTA (sugars k3 d1 m1 d8 k3, PS) | 15 | 
CTGCTGCTAGTGCCAA (sugars kkdddddddddkekek, PS) | 44 | 
AAATTATTGCCTGAAC (sugars k3 d10 k3, PS) | 32 | 
CCCCTAAGTTATTATC (sugars k3 d10 k3, PS) | 33 | 
CTTAAGAGAAGGTGCA (sugars k3 d10 k3, PS) | 43 | 
TTTATAACTACAAGAG (sugars k3 d10 k3, PS) | 38 | 
CCTTTAGTTAGAATAG (sugars k3 d10 k3, PS) | 37 | 
CTGTGTAAATAAGTTC (sugars k3 d10 k3, PS) | 38 | 
TCTGGGACCAAGGATA (sugars k3 d1 m1 d8 k3, PS) | 31 | 
AGACTTTGAGACTCTT (sugars k3 d10 k3, PS) | 57 | 
GTTTUTAAGAGGCATG (sugars k3 d1 m1 d8 k3, PS) | 38 | 
AATGAATCATGATTGA (sugars k3 d10 k3, PS) | 33 | 
AACTACAAGAGGTTAT (sugars k3 d10 k3, PS) | 57 | 
AATAGCCAGTACAGTT (sugars k3 d1 m1 d8 k3, PS) | 66 | 

Sequence | target mRNA inhibition (1 µM) [%] | also measured
TCCAAGTAATTACTTC (sugars k3 d10 k3, PS) | 72 | target mRNA inhibition (0.02 µM): 0%; target mRNA inhibition (0.078 µM): 3%; target mRNA inhibition (0.313 µM): 23%; target mRNA inhibition (1.25 µM): 43%; target mRNA inhibition (5 µM): 67%
CTGGAAGATTAATCAT (sugars k3 d10 k3, PS) | 31 | 
AACAGTCTTAAACCTT (sugars k3 d1 m1 d8 k3, PS) | 75 | 
ATATTCTGTGGCATGG (sugars k3 d10 k3, PS) | 69 | 
CGAATTATTTCTTGCG (sugars k3 d10 k3, PS) | 58 | 
TAAGCTGAGAGTTCTA (sugars kkdddddddddkekek, PS) | 29 | 
GAGTTATTCTCTTGAC (sugars k3 d10 k3, PS) | 57 | 
TAGCTAATGTATGAGG (sugars k3 d10 k3, PS) | 48 | 
TGCACCGTTTTGGGCT (sugars k3 d9 k3 e1, PS) | 43 | 
CACCGCGCTTATTAAT (sugars k3 d10 k3, PS) | 7 | 
AATTCACCTTGACTAA (sugars k3 d1 m1 d8 k3, PS) | 0 | 
CTCAAAGTCAGTATCC (sugars k3 d10 k3, PS) | 70 | 
AACTTCATAGTGGACT (sugars kkdddddddddkekek, PS) | 68 | 
CTCTGTGAAAGCCAAC (sugars k3 d10 k3, PS) | 50 | 
TCGAAACTATTCATAT (sugars k3 d10 k3, PS) | 64 | 
TAGCCAGTACAGTTCC (sugars k3 d1 m1 d8 k3, PS) | 70 | 
TCTTCATCCTTGGTGC (sugars k3 d10 k3, PS) | 48 | 
TAACTACATGACCTGG (sugars k3 d10 k3, PS) | 37 | 
TGTCCAGGTTGAGATA (sugars k3 d9 k3 e1, PS) | 45 | 
ATCCATATTCCCTGAT (sugars k3 d10 k3, PS) | 26 | 
GAACAATATGGGATGA (sugars k3 d10 k3, PS) | 26 | 
ACTAATGAATCATGAT (sugars k3 d10 k3, PS) | 39 | 
GCTAAGTAGTAATTCT (sugars k3 d10 k3, PS) | 57 | 
TTAAGATGTCCAGGCA (sugars k3 d10 k3, PS) | 35 | 
CCTTATGTTATCTCAA (sugars k3 d10 k3, PS) | 67 | 
CTGGAACAATATGGGA (sugars kkdddddddddkekek, PS) | 33 | 
TCCGTTATAAGTTTCA (sugars k3 d10 k3, PS) | 65 | 

Sequence | target mRNA inhibition (1 µM) [%] | also measured
AAAAATTGGCCTCCTG (sugars k3 d10 k3, PS) | 41 | 
AGCCAAACTGCTACTG (sugars k3 d10 k3, PS) | 78 | 
ACTTCATAGTGGACTT (sugars k3 d10 k3, PS) | 61 | 
CGTTTGACTGCTGCTA (sugars k3 d10 k3, PS) | 58 | 
AGTCGGTCACCTTTCA (sugars k3 d1 m1 d8 k3, PS) | 61 | 
GCACCAACTATGTAAT (sugars k3 d10 k3, PS) | 53 | 
AGAGUCGGTCACCTTT (sugars k3 d1 m1 d8 k3, PS) | 55 | 
AATAGAGTTGCACCGT (sugars k3 d10 k3, PS) | 48 | 
ATGGCTTAATTTTCGG (sugars k3 d10 k3, PS) | 33 | 
TAAACAATATTAAGGG (sugars k3 d10 k3, PS) | 0 | 
GAGTCATAATTTGCTT (sugars k3 d10 k3, PS) | 57 | 
GTTAGAATAGTCTTCA (sugars kkdddddddddkekek, PS) | 45 | 
ATAATCTTGTGCTTGG (sugars k3 d10 k3, PS) | 36 | 
TAGGTAGCTAATGTAT (sugars k3 d10 k3, PS) | 34 | 
TATGTGATTGAGTTCT (sugars k3 d10 k3, PS) | 28 | 
CAGGGTGGTAACGGTG (sugars k3 d9 k3 e1, PS) | 39 | 
AGCTAGACAATTGCAA (sugars k3 d10 k3, PS) | 30 | 
GTCCACTTGAATTCTG (sugars k3 d10 k3, PS) | 18 | 
CACTGATACATACCAC (sugars k3 d10 k3, PS) | 64 | 
ACACTAATATTGAGGC (sugars k3 d9 k3 e1, PS) | 68 | 
GCTGGTAAAGGTAAGG (sugars k3 d10 k3, PS) | 65 | 
AATATTGAGGCACTGG (sugars k3 d9 k3 e1, PS) | 36 | 
CCAGTAGGTGTGTTTC (sugars k3 d10 k3, PS) | 55 | 
AAAATAGAGTCGGTCA (sugars kkdddddddddkekek, PS) | 53 | 
